Measurements taken from patent publication US7381540B2, “Composition for measuring glucose having improved substrate specificity” (Toyo Boseki Kabushiki Kaisha, priority 2005, dated 2008).

Tests used:
[1] = tested on: modified PQQGDH; test: Substrate specificity using glucose assay system (ferricyanide reduction, absorbance 420 nm); assay type: biochemical; conditions: for activity with respect to maltose compared with the control (in words): substrate concentration of 4.8 mM, in some cases
Experimental: D-glucose+ferricyanide ion+PQQGDH D-glucono-1,5-lactone+ferrocyanide ion
Specificity to each substrate can be determined by changing D-glucose to other saccharides. The presence of the ferrocyanide ion produced by reduction of the ferricyanide ion was confirmed by measuring the decrease of absorbance at a wavelength of 420 nm by spectrophotometry.
A. […]
B. Potassium ferricyanide solution: 50 mM (0.165 g potassium ferricyanide (molecular weight: 329.25) dissolved in 10 ml of distilled water)
C. PQQGDH solution: 31000 U/ml (approx. 128 mg PQQGDH (Toyobo: GLD-331) dissolved in 5 ml of distilled water)
D. Substrate solution (D-glucose solution or maltose solution): 100 or 400 mM
• 1. The following reaction mixture was prepared in a light shielding bottle, and stored on ice (prepared at use). 48.2 mL of each buffer solution (pH6.5) (A) • 4.0 mL of potassium ferricyanide solution (B) • 0.19 mL of (C) • 2. 2.65 ml of the reaction mixture and 0.3 ml of additive were placed in a test tube (plastic) and pre-warmed for 5 minutes at 37° C. • 3. 0.15 ml of substrate solution (D) were added and mixed gently. • 4. The reduction in the absorbance relative to water at 420 nm was recorded for 1 to 3 minutes with a spectrophotometer while maintaining at a temperature of 37° C., and the ΔOD per minute was calculated from the initial linear portion of the curve (ΔOD test). At the same time, the same procedure was carried out with the exception of adding distilled water instead of glucose solution followed by measurement of the blank (ΔOD blank).
The above-mentioned procedure was carried out at each of the predetermined concentrations shown in Tables 1 to 3 using as additives succinic acid, adipic acid, suberic acid, pimeric acid, potassium chloride, ammonium chloride, diammonium hydrogen citrate, malonic acid, L-lysine, taurine, 3,3-dimethylglutaric acid, malic acid, glutaric acid, calcium glycerate, amino-n-butyric acid, sodium glycolate, sodium α-ketoglutarate, fumaric acid, glycerin, glutamic acid and serine. And the procedure was also carried out for those not containing additives to assess the effects of additives.
Variation in absorbance per unit time was determined by calculating ΔOD/min(ΔOD test−ΔOD blank)
To evaluate whether activity had declined with respect to sugars other than glucose, the ΔOD/min (a) with D-glucose as the substrate solution and the ΔOD/min (b) with the other sugar in place of D-glucose as the substrate solution were measured, and the relative value ((b)/(a)×100) was calculated given 100 as the measurement value with glucose as the substrate.
In each of Tables 3 to 5, in the case the value of the ratio of measured values of maltose and glucose (maltose/glucose) relative to the control (control: no addition) is small, activity with respect to maltose during glucose measurement decreases.

[2] = tested on: modified PQQGDH; test: Maltose activity of glucose electrode loaded with modified PQQGDH (oxidation current, potassium ferricyanide mediator); assay type: biochemical, Acinetobacter baumannii strain NCIMB11517; conditions: for Maltose Activity (%): solute 50 mM, pH 5.5, glucose or maltose 4 mM, 0.1 M potassium ferricyanide, +0.35 V, 25° C.; for Maltose Activity of Glucose Electrode: 50 mM solvent, 1 mM calcium chloride, 0.1% Triton X-100
Experimental: 0.5 g of carbon graphite were placed in a mortar followed by the addition of 0.3 ml of liquid paraffin and kneading with a pestle for 30 minutes to produce a carbon paste. The resulting carbon paste was spread onto a platinum electrode followed by the addition of 10 μl of the modified PQQGDH solution (2,000 U/ml) produced in Example 2 and air drying for 30 minutes at room temperature. A cut cellulose semi-permeable membrane (molecular weight: 8,000) was placed over the dried enzyme electrode and the semi-permeable membrane was immobilized with plastic O-rings. The glucose electrode produced in this manner was then used after preliminarily immersing in the cold reaction solvent for 30 minutes.
The substances listed in Table 1 were used as solutes, and buffers were respectively prepared having a final concentration of 50 mM (pH 5.5). Each of the solvents contained an activator/stabilizer in the form of calcium chloride at 1 mM and surfactant in the form of 0.1% Triton X-100 in addition to the solute listed in Table 1. Potassium ferricyanide was dissolved in each of the produced solvents to a concentration of 0.1 M to prepare reaction solutions.
50 mM phosphoric acid or pimeric acid solution containing 1 mM calcium chloride and 0.1% Triton X-100 (consisting of three types having pH values of 5.0, 6.0 and 7.0, respectively) were prepared. Maltose activity of the glucose electrode was investigated for each according to the method of Example 5.

[3] = tested on: modified PQQGDH; test: Substrate specificity using glucose assay system (ferricyanide reduction, absorbance 420 nm); assay type: biochemical; conditions: potassium phosphate buffer pH 7.0
[4] = glutaric acid buffer pH 7.0, reagent 1%, substrate 4.8 mM, control 0.86
[5] = glutaric acid buffer pH 7.0, reagent 1%, substrate 19.2 mM, control 0.94
[6] = phthalic acid buffer pH 7.0, reagent 0.5%, substrate 4.8 mM, control 0.72
[7] = phthalic acid buffer pH 7.0, reagent 0.5%, substrate 19.2 mM, control 0.75
[8] = phthalic acid buffer pH 7.0, reagent 1%, substrate 4.8 mM, control 0.72
[9] = phthalic acid buffer pH 7.0, reagent 1%, substrate 19.2 mM, control 0.75
[10] = phthalic acid buffer pH 7.0, reagent 2%, substrate 4.8 mM, control 0.72
[11] = phthalic acid buffer pH 7.0, reagent 2%, substrate 19.2 mM, control 0.75
[12] = reagent 0.5%, substrate 4.8 mM, control 0.85
[13] = reagent 1%, substrate 4.8 mM, control 0.85
[14] = reagent 2%, substrate 4.8 mM, control 0.85
[15] = reagent 2%, substrate 19.2 mM, control 0.93
[16] = potassium phosphate buffer pH 7.0, reagent 0.5%, substrate 19.2 mM, control 0.93
[17] = potassium phosphate buffer pH 7.0, reagent 1%, substrate 19.2 mM, control 0.93
[18] = glutaric acid buffer pH 7.0, reagent 0.1%, substrate 4.8 mM, control 0.86
[19] = glutaric acid buffer pH 7.0, reagent 0.1%, substrate 19.2 mM, control 0.94
[20] = glutaric acid buffer pH 7.0, reagent 0.33%, substrate 4.8 mM, control 0.86
[21] = glutaric acid buffer pH 7.0, reagent 0.33%, substrate 19.2 mM, control 0.94

In the case of `O=C(O)CC(=O)O` [Malonic acid], the Maltose/glucose ratio [1, 4] is reported as 0.68, the Maltose/glucose ratio [1, 5] is reported as 0.84 and the Maltose/glucose ratio [1, 6] is reported as 0.74. The Maltose/glucose ratio [1, 7] was 0.58, the Maltose/glucose ratio [1, 8] was 0.77 and the Maltose/glucose ratio [1, 9] was 0.57. For the same compound, the Maltose/glucose ratio [1, 10] was 0.82, the Maltose/glucose ratio [1, 11] was 0.63 and the “activity with respect to maltose compared with the control (in words)” value [1] was “did not decrease”. The “Maltose Activity (%)” value [2] was 23.2%.
In the case of `CC(=O)O` [Acetic acid, reference compound], the “Maltose Activity (%)” value [2] is reported as 35.5%.
`O=C([O-])CO.[Na+]` [sodium glycolate] was tested, and the Maltose/glucose ratio [1, 4] was 0.77 and the Maltose/glucose ratio [1, 5] was 0.92.
For `CC[C@H](N)C(=O)O` [L-2-amino-n-butyric acid], the Maltose/glucose ratio [1, 4] was 0.76 and the Maltose/glucose ratio [1, 5] was 0.92.
`Cl.NCCCC[C@H](N)C(=O)O` [L-lysine hydrochloride] gave a Maltose/glucose ratio [3, 12] of 0.78, a Maltose/glucose ratio [3, 13] of 0.71 and a Maltose/glucose ratio [3, 14] of 0.66. For the same compound, the Maltose/glucose ratio [3, 15] was 0.85, the Maltose/glucose ratio [1, 4] was 0.65 and the Maltose/glucose ratio [1, 5] was 0.87. For the same compound, the Maltose/glucose ratio [1, 6] was 0.62, the Maltose/glucose ratio [1, 7] was 0.64 and the Maltose/glucose ratio [1, 8] was 0.61. The Maltose/glucose ratio [1, 9] was 0.58, the Maltose/glucose ratio [1, 10] was 0.59 and the Maltose/glucose ratio [1, 11] was 0.50. The Maltose/glucose ratio [1, 16] was 0.91 and the Maltose/glucose ratio [1, 17] was 0.93.
`O=C(O)CCCC(=O)O` [Glutaric acid] showed a Maltose/glucose ratio [1, 18] of 0.65, a Maltose/glucose ratio [1, 19] of 0.81 and a Maltose/glucose ratio [1, 4] of 0.34. For the same compound, the Maltose/glucose ratio [1, 5] was 0.54 and the “Maltose Activity (%)” value [2] was 22.1%.
`O=C(O)CC(O)C(=O)O` (racemic) [D,L-malic acid] gave a Maltose/glucose ratio [1, 18] of 0.57, a Maltose/glucose ratio [1, 19] of 0.77 and a Maltose/glucose ratio [1, 4] of 0.34. For the same compound, the Maltose/glucose ratio [1, 5] was 0.40 and the “Maltose Activity (%)” value [2] was 18.9%.
`O=P(O)(O)O` [Phosphoric acid, reference compound] was tested, and the “Maltose Activity of Glucose Electrode” value ([2]; pH 5.0) was 23.7%, the “Maltose Activity of Glucose Electrode” value ([2]; pH 6.0) was 36.8% and the “Maltose Activity of Glucose Electrode” value ([2]; pH 7.0) was 50.8%. For the same compound, the “Maltose Activity (%)” value [2] was 28.0%.
`O=S(=O)(O)CCN1CCOCC1` [MES, reference compound] was tested, and the “Maltose Activity (%)” value [2] was 29.6%.
`NCC(=O)O` [Glycine] was tested, and the Maltose/glucose ratio [1, 4] was 0.76 and the Maltose/glucose ratio [1, 5] was 0.93.
In the case of `O=C(O)CCC(=O)C(=O)O` [2-ketoglutaric acid], the “Maltose Activity (%)” value [2] is reported as 19.3%.
Compound `O=C(O)/C=C/C(=O)O` [Fumaric acid] has a Maltose/glucose ratio [1, 4] of 0.68 and a Maltose/glucose ratio [1, 5] of 0.88.
In the case of `O=C([O-])C(O)CO.O=C([O-])C(O)CO.[Ca+2]` (racemic) [Calcium DL-glycerate], the Maltose/glucose ratio [1, 20] is reported as 0.60 and the Maltose/glucose ratio [1, 21] is reported as 0.82.
`[Cl-].[K+]` [Potassium chloride] gave a Maltose/glucose ratio [1, 6] of 0.66, a Maltose/glucose ratio [1, 7] of 0.71 and a Maltose/glucose ratio [1, 8] of 0.67. It also gave a Maltose/glucose ratio [1, 9] of 0.64, a Maltose/glucose ratio [1, 10] of 0.60 and a Maltose/glucose ratio [1, 11] of 0.60.
`N[C@H](CCC(=O)O)C(=O)O` [D-glutamic acid] was tested, and the Maltose/glucose ratio [1, 18] was 0.73 and the Maltose/glucose ratio [1, 19] was 0.89.
In the case of `O=C(O)CC(O)(CC(=O)O)C(=O)O` [Citric acid], the “Maltose Activity (%)” value [2] is reported as 23.4%.
`NCCS(=O)(=O)O` [Taurine] showed a Maltose/glucose ratio [1, 4] of 0.75, a Maltose/glucose ratio [1, 5] of 0.81 and a Maltose/glucose ratio [1, 6] of 0.71. For the same compound, the Maltose/glucose ratio [1, 7] was 0.72, the Maltose/glucose ratio [1, 8] was 0.66 and the Maltose/glucose ratio [1, 9] was 0.68. For the same compound, the Maltose/glucose ratio [1, 10] was 0.62 and the Maltose/glucose ratio [1, 11] was 0.68.
`O=C(O)CCCCCCC(=O)O` [Suberic acid] gave a Maltose/glucose ratio ([1]; glutaric acid buffer pH 7.0, reagent 0.03%, substrate 4.8 mM, control 0.86) of 0.68, a Maltose/glucose ratio ([1]; glutaric acid buffer pH 7.0, reagent 0.03%, substrate 19.2 mM, control 0.94) of 0.86 and a Maltose/glucose ratio [1, 20] of 0.38. It also gave a Maltose/glucose ratio [1, 21] of 0.49, a Maltose/glucose ratio ([1]; phthalic acid buffer pH 7.0, reagent 0.017%, substrate 4.8 mM, control 0.72) of 0.66 and a Maltose/glucose ratio ([1]; phthalic acid buffer pH 7.0, reagent 0.017%, substrate 19.2 mM, control 0.75) of 0.69. The Maltose/glucose ratio ([1]; phthalic acid buffer pH 7.0, reagent 0.033%, substrate 4.8 mM, control 0.72) was 0.67, the Maltose/glucose ratio ([1]; phthalic acid buffer pH 7.0, reagent 0.033%, substrate 19.2 mM, control 0.75) was 0.62 and the Maltose/glucose ratio ([1]; phthalic acid buffer pH 7.0, reagent 0.066%, substrate 4.8 mM, control 0.72) was 0.70. For the same compound, the Maltose/glucose ratio ([1]; phthalic acid buffer pH 7.0, reagent 0.066%, substrate 19.2 mM, control 0.75) was 0.55 and the “Maltose Activity (%)” value [2] was 20.2%.
In the case of `O=C(O)c1ccccc1C(=O)O` [Phthalic acid], the “Maltose Activity (%)” value [2] is reported as 4.9%.
For `N[C@@H](CO)C(=O)O` [L-serine], the Maltose/glucose ratio [1, 4] was 0.73 and the Maltose/glucose ratio [1, 5] was 0.87.
`N.N.O=C(O)CC(O)(CC(=O)O)C(=O)O` [Diammonium hydrogen citrate] gave a Maltose/glucose ratio [3, 12] of 0.64, a Maltose/glucose ratio [3, 13] of 0.52 and a Maltose/glucose ratio [3, 14] of 0.36. It also gave a Maltose/glucose ratio [3, 15] of 0.54, a Maltose/glucose ratio [1, 18] of 0.78 and a Maltose/glucose ratio [1, 19] of 0.90. The Maltose/glucose ratio [1, 4] was 0.59, the Maltose/glucose ratio [1, 5] was 0.82 and the Maltose/glucose ratio [1, 6] was 0.79. The Maltose/glucose ratio [1, 7] was 0.55, the Maltose/glucose ratio [1, 8] was 0.80 and the Maltose/glucose ratio [1, 9] was 0.70. The Maltose/glucose ratio [1, 10] was 0.89, the Maltose/glucose ratio [1, 11] was 0.63 and the Maltose/glucose ratio [1, 16] was 0.88. The Maltose/glucose ratio [1, 17] was 0.76 and the “activity with respect to maltose compared with the control (in words)” value [1] was “did not decrease”.
`Cl.N` [Ammonium chloride] was tested, and the Maltose/glucose ratio [3, 12] was 0.72, the Maltose/glucose ratio [3, 13] was 0.58 and the Maltose/glucose ratio [3, 14] was 0.43. It also gave a Maltose/glucose ratio [3, 15] of 0.70, a Maltose/glucose ratio [1, 4] of 0.56 and a Maltose/glucose ratio [1, 5] of 0.71. It also gave a Maltose/glucose ratio [1, 6] of 0.60, a Maltose/glucose ratio [1, 7] of 0.67 and a Maltose/glucose ratio [1, 8] of 0.57. It also gave a Maltose/glucose ratio [1, 9] of 0.59, a Maltose/glucose ratio [1, 10] of 0.52 and a Maltose/glucose ratio [1, 11] of 0.52. For the same compound, the Maltose/glucose ratio [1, 16] was 0.91 and the Maltose/glucose ratio [1, 17] was 0.84.
